Laboratory results taken from patent EP4725957A1, “GROUP OF CYCLIC ALKALINE LIPOPEPTIDE COMPOUNDS, AND PREPARATION METHOD THEREFOR AND USE THEREOF” (Institute of Medicinal Biotechnology, Chinese Academy of …, priority 2023, dated 2024).
≈ marks a conversion by molar mass, not a printed value. Bridge positions count the residues as written; N and C are the ends. Square brackets hold non-standard residues; d marks the D form. Peptide text beside a SMILES is read from it. * marks the point of attachment. Heptanoyl(6-Me) = CC(C)CCCCC(=O)*; Sulfomethyl = O=S(=O)(O)C*; dOrn = NCCC[C@@H](N)C(=O)O; Nonanoyl = CCCCCCCCC(=O)*; X1 = CC[C@H](C)CCCCC(=O)*; dDab = NCC[C@@H](N)C(=O)O; Octanoyl = CCCCCCCC(=O)*; dDap = NC[C@@H](N)C(=O)O; Dab = NCC[C@H](N)C(=O)O; Dap = NC[C@H](N)C(=O)O

Key:
Assay type in all cases: cell-based
[1] = system: Acinetobacter baumannii ABA19-1; conditions: ABA19-1
Method in brief: (§1)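 The MIC value comes from CLSI broth microdilution after 16-20 h at 35-37°C. Cyclic lipopeptides in Mueller-Hinton broth spanned 64 to 0.03 mg/L final, with each well carrying (2-4) × 10^5 CFU/mL.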

[2] = system: Acinetobacter baumannii NCTC 13304 (OXA-27); conditions: NCTC 13304
Method in brief: as §1

[3] = system: Escherichia coli ATCC BAA-2340 (KPC); conditions: ATCC BAA-2340
Method in brief: as §1

[4] = system: Escherichia coli ATCC BAA-2523; conditions: ATCC BAA-2523
Method in brief: as §1

[5] = system: Klebsiella pneumoniae ATCC BAA-1705 (KPC); conditions: ATCC BAA-1705
Method in brief: as §1

[6] = system: Klebsiella pneumoniae KPN+19-15; conditions: KPN+19-15
Method in brief: as §1

[7] = system: Pseudomonas aeruginosa ATCC 27853; conditions: ATCC 27853
Method in brief: as §1

[8] = system: Pseudomonas aeruginosa PAE19-3; conditions: PAE19-3
Method in brief: as §1

[9] = Nephrotoxicity assay: in vitro cytotoxicity of HK-2 cells by CCK-8 assay; conditions: human, HK-2 cells (human renal), 72 h incubation with drug-containing medium
Method in brief: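 Compounds in sterile water, diluted to final 500, 250, 200, 100, 50, 25 and 12.5 µg/mL, were applied for 72 h to human HK-2 kidney cells. Absorbance at 450 nm after 3 h CCK-8 gave viability against untreated wells, and IC50 came from logarithmic regression; three replicates.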

SMILES	MIC [1] [µg/mL]	MIC [2] [µg/mL]	MIC [3] [µg/mL]	MIC [4] [µg/mL]	MIC [5] [µg/mL]	MIC [6] [µg/mL]	MIC [7] [µg/mL]	MIC [8] [µg/mL]	IC50 at 72 h [9] [µg/mL]
CC[C@H](C)CCCCC(=O)N[C@@H](CCN)C(=O)N[C@H](C(=O)N[C@H](CN)C(=O)N[C@H]1CCNC(=O)[C@H]([C@@H](C)O)NC(=O)[C@H](CCN)NC(=O)[C@H](CCN)NC(=O)[C@H]([C@@H](C)O)NC(=O)[C@@H](Cc2ccccc2)NC(=O)[C@H](CCN)NC1=O)[C@@H](C)O [Compound 1, (S)-6-methyloctanoyl-Dab-Thr-D-Dap-ring(4-10)[Dab-Dab-D-Phe-Thr-Dab-Dab-Thr]] (X1-[Dab]T[dDap][Dab][Dab][dF]T[Dab][Dab]T; lactam 4-C)	≤0.03	≤0.03	≤0.03	≤0.03	≤0.03	≤0.03	0.03 (≈ 0.0255 µM)	0.125 (≈ 0.106 µM)	> 500
CCCCCCCCC(=O)N[C@@H](CCN)C(=O)N[C@H](C(=O)N[C@H](CCN)C(=O)N[C@H]1CCNC(=O)[C@H]([C@@H](C)O)NC(=O)[C@H](CCN)NC(=O)[C@H](CCN)NC(=O)[C@H]([C@@H](C)O)NC(=O)[C@@H](Cc2ccccc2)NC(=O)[C@H](CCN)NC1=O)[C@@H](C)O [Compound 15, Nonanoyl-Dab-Thr-D-Dab-ring(4-10)[Dab-Dab-D-Phe-Thr-Dab-Dab-Thr]] (Nonanoyl-[Dab]T[dDab][Dab][Dab][dF]T[Dab][Dab]T; lactam 4-C)	0.06 (≈ 0.0504 µM)	0.06 (≈ 0.0504 µM)	0.06 (≈ 0.0504 µM)	0.06 (≈ 0.0504 µM)	0.06 (≈ 0.0504 µM)	0.06 (≈ 0.0504 µM)	2 (≈ 1.68 µM)	2 (≈ 1.68 µM)	320 ± 31.5 (≈ 269 µM)
CC(C)CCCCC(=O)N[C@@H](CCN)C(=O)N[C@H](C(=O)N[C@H](CO)C(=O)N[C@H]1CCNC(=O)[C@H]([C@@H](C)O)NC(=O)[C@H](CCN)NC(=O)[C@H](CCN)NC(=O)[C@H]([C@@H](C)O)NC(=O)[C@@H](Cc2ccccc2)NC(=O)[C@H](CCN)NC1=O)[C@@H](C)OCS(=O)(=O)O [Compound 104, 6-methylheptanoyl-Dab-Thr(CH2SO3H)-D-Ser-ring(4-10)[Dab-Dab-D-Phe-Thr-Dab-Dab-Thr]] ({Heptanoyl(6-Me)}-[Dab]T(Sulfomethyl)[dS][Dab][Dab][dF]T[Dab][Dab]T; lactam 4-C)	0.06 (≈ 0.0477 µM)	0.06 (≈ 0.0477 µM)	0.03 (≈ 0.0238 µM)	0.03 (≈ 0.0238 µM)	0.125 (≈ 0.0993 µM)	0.125 (≈ 0.0993 µM)	0.25 (≈ 0.199 µM)	0.25 (≈ 0.199 µM)	> 500
CCCCCCCC(=O)N[C@@H](CCN)C(=O)N[C@H](C(=O)N[C@@H](CN)C(=O)N[C@H]1CCNC(=O)[C@H]([C@@H](C)O)NC(=O)[C@H](CCN)NC(=O)[C@H](CCN)NC(=O)[C@H]([C@@H](C)O)NC(=O)[C@@H](Cc2ccccc2)NC(=O)[C@H](CCN)NC1=O)[C@@H](C)O [Compound 8, Octanoyl-Dab-Thr-Dap-ring(4-10)[Dab-Dab-D-Phe-Thr-Dab-Dab-Thr]] (Octanoyl-[Dab]T[Dap][Dab][Dab][dF]T[Dab][Dab]T; lactam 4-C)	≤0.03	≤0.03	≤0.03	≤0.03	≤0.03	≤0.03	0.125 (≈ 0.107 µM)	0.25 (≈ 0.215 µM)	> 500
CCCCCCCCC(=O)N[C@@H](CCN)C(=O)N[C@H](C(=O)N[C@H](CCCN)C(=O)N[C@H]1CCNC(=O)[C@H]([C@@H](C)O)NC(=O)[C@H](CCN)NC(=O)[C@H](CCN)NC(=O)[C@H](CC(C)C)NC(=O)[C@@H](Cc2ccccc2)NC(=O)[C@H](CCN)NC1=O)[C@@H](C)O [Compound 45, Nonanoyl-Dab-Thr-D-Orn-ring(4-10)[Dab-Dab-D-Phe-Leu-Dab-Dab-Thr]] (Nonanoyl-[Dab]T[dOrn][Dab][Dab][dF]L[Dab][Dab]T; lactam 4-C)	0.125 (≈ 0.103 µM)	0.06 (≈ 0.0493 µM)	0.06 (≈ 0.0493 µM)	0.06 (≈ 0.0493 µM)	0.06 (≈ 0.0493 µM)	0.125 (≈ 0.103 µM)	0.5 (≈ 0.411 µM)	2 (≈ 1.64 µM)	139 ± 6.7 (≈ 114 µM)
